Where a name gives a salt, the structure may show the parent alone.
Tested on: SMN2 promoter
Experiment: SMN2 promoter assay in NSC-34 cells (β-lactamase reporter)
Format: cell-based, mouse
Conditions: Mus musculus, Table 1, SMN2 promoter driving β-lactamase, 12 point dose curve, read-out: Promoter Assay EC50
From the text: All compounds were screened using an in vitro based SMN2 promoter assay. We used NSC-34 cells, a hybrid cell line between mouse spinal cord cells and mouse neuroblastoma cells. NSC-34 cells harbor an expression plasmid containing a 3.4 kb promoter fragment of the SMN2 gene driving β-lactamase expression.
[…] […] CCF2-AM diffuses across the plasma membrane and is converted into an active β-lactamase substrate by cytoplasmic esterase. […] The fold induction is proportional to the extent of β-lactamase produced and in turn proportional to SMN2 promoter activation for a given compound relative to vehicle (DMSO) control. […] These values are used to rank activities of the compounds and derive structure activity relationship.

EC50 [nM]	SMILES
< 1000	Nc1nc(N)c2c(OCC3CCN(Cc4ccc(F)c(F)c4)CC3)cccc2n1 [Example-011, 5-[1-(3,4-Difluorobenzyl)piperidin-4-ylmethoxy]quinazoline-2,4-diamine]
< 1000	Cc1ccc(C(=O)N2CCC(COc3cccc4nc(N)nc(N)c34)CC2)cc1 [Example-021, [4-(2,4-Diaminoquinazolin-5-yloxymethyl)piperidin-1-yl]-p-tolylmethanone]
< 1000	Cc1ccccc1C(=O)N1CCC(COc2cccc3nc(N)nc(N)c23)CC1 [Example-019, [4-(2,4-Diaminoquinazolin-5-yloxymethyl)piperidin-1-yl]-o-tolylmethanone]
< 1000	Nc1nc(N)c2c(OCC3(S(=O)(=O)c4ccccc4Cl)CCNCC3)cccc2n1 [Example-027, 5-[4-(2-Chlorobenzenesulfonyl)piperidin-4-ylmethoxy]quinazoline-2,4-diamine]
< 1000	Nc1nc(N)c2c(OCC3CCN(C(=O)c4ccccc4F)CC3)cccc2n1 [Example-013, [4-(2,4-Diaminoquinazolin-5-yloxymethyl)piperidin-1-yl](2-fluorophenyl)methanone]
< 1000	Cc1cccc(S(=O)(=O)N2CCC(COc3cccc4nc(N)nc(N)c34)CC2)c1 [Example-032, 5-[1-(Toluene-3-sulfonyl)piperidin-4-ylmethoxy]quinazoline-2,4-diamine]
< 1000	Nc1nc(N)c2c(OCC3CCN(C(=O)c4ccc(F)cc4F)CC3)cccc2n1 [Example-022, [4-(2,4-Diaminoquinazolin-5-yloxymethyl)piperidin-1-yl]-(2,4-difluorophenyl)methanone]
< 1000	Nc1nc(N)c2c(OCC3CCN(C(=O)c4ccc5ccccc5c4)CC3)cccc2n1 [Example-018, [4-(2,4-Diaminoquinazolin-5-yloxymethyl)piperidin-1-yl]naphthalen-2-yl-methanone]
1000 to 5000	Nc1nc(N)c2c(OCC3CCN(Cc4ccc(C(=O)O)cc4)CC3)cccc2n1 [Example-223, 4-[4-(2,4-Diamino-quinazolin-5-yloxymethyl)-piperidin-1-ylmethyl]-benzoic Acid]

Same assay, conditions: Mus musculus, Table 4, SMN2 promoter driving β-lactamase, read-out: Promoter Assay EC50 for 2391.003C(P)

EC50 [nM]	SMILES
1000 to 5000	CC(C)(C)OC(=O)N1CCN(c2cccc3nc(N)nc(N)c23)CC1 [Examplc-219, 4-(2,4-Diaminoquinazolin-5-yl)piperazine-1-carboxylic acid tert-butyl ester]
1000 to 5000	Nc1nc(N)c2c(N3CCN(Cc4ccc5ccccc5c4)CC3)cccc2n1 [Example-204, 5-(4-Naphthalen-2-ylmethyl-piperazin-1-yl)-quinazoline-2,4-diamine hydrochloride]
< 1000	Cc1cccc(CN2CCN(c3cccc4nc(N)nc(N)c34)CC2)c1F [Example-183, 5-[4-(2-Fluoro-3-methyl-benzyl)-piperazin-1-yl]-quinazoline-2,4-diamine]
1000 to 5000	Nc1nc(N)c2c(N3CCN(Cc4ccccc4)CC3)cccc2n1 [Example-169, 5-(4-Benzyl-piperazin-1-yl)-quinazoline-2,4-diamine]

SMILES	EC50 [nM]
Nc1nc(N)c2c(N3CCNCC3)cccc2n1 [Example-220, 5-piperazin-1-ylquinazoline-2,4-diamine]	< 1000

Same assay, conditions: Mus musculus, Table 6, SMN2 promoter driving β-lactamase, read-out: Promoter Assay EC50

EC50 [nM]	SMILES
< 1000	CC1CC(COc2cccc3nc(N)nc(N)c23)CC(C)N1Cc1c(F)cccc1Cl (centres unmarked) [Example-227, 5-[1-(2-Chloro-6-fluoro-benzyl)-2,6-dimethyl-piperidin-4-ylmethoxy]-quinazoline-2,4-diamine]
< 1000	CC1CC(COc2cccc3nc(N)nc(N)c23)CC(C)N1Cc1ccccc1F (centres unmarked) [Example-226, 5-[1-(2-Fluoro-benzyl)-2,6-dimethyl-piperidin-4-ylmethoxy]-quinazoline-2,4-diamine]

Same assay, conditions: Table 1, SMN2 promoter driving β-lactamase, 12 point dose curve, read-out: Promoter Assay EC50

EC50 [nM]	SMILES
< 1000	COc1cc(CN2CCC(COc3cccc4nc(N)nc(N)c34)CC2)cc(OC)c1 [Example-133]
< 1000	Cc1c(Cl)cccc1S(=O)(=O)N1CCC(COc2cccc3nc(N)nc(N)c23)CC1 [Example-081]
< 1000	COc1ccc(CN2CCC(COc3cccc4nc(N)nc(N)c34)CC2)cc1 [Example-124]
< 1000	Nc1nc(N)c2c(OCC3CCN(S(=O)(=O)c4ccc5ccccc5c4)CC3)cccc2n1 [Example-030]
1000 to 5000	COc1ccc(CC(=O)N2CCC(COc3cccc4nc(N)nc(N)c34)CC2)cc1 [Example-045]
< 1000	Nc1nc(N)c2c(OCC3CCN(C(=O)c4c(Cl)cccc4Cl)CC3)cccc2n1 [Example-108]
< 1000	Nc1nc(N)c2c(OCC3CCN(Cc4ccc(Cl)cc4Cl)CC3)cccc2n1 [Example-104]
< 1000	CC(C)(C)c1ccc(S(=O)(=O)N2CCC(COc3cccc4nc(N)nc(N)c34)CC2)cc1 [Example-073]
< 1000	Nc1nc(N)c2c(OCC3CCN(Cc4ccsc4)CC3)cccc2n1 [Example-145]
< 1000	COc1cccc(CN2CCC(COc3cccc4nc(N)nc(N)c34)CC2)c1 [Example-114]
< 1000	Nc1nc(N)c2c(OCC3CCN(C(=O)c4ccc5c(c4)OCO5)CC3)cccc2n1 [Example-105]
< 1000	Nc1nc(N)c2c(OCC3CCN(Cc4ccccc4C(F)(F)F)CC3)cccc2n1 [Example-131]
< 1000	CCc1ccc(C(=O)N2CCC(COc3cccc4nc(N)nc(N)c34)CC2)cc1 [Example-064]
< 1000	Nc1nc(N)c2c(OCC3CCN(Cc4cc(F)c(F)c(F)c4)CC3)cccc2n1 [Example-148]
< 1000	Nc1nc(N)c2c(OCC3CCN(S(=O)(=O)c4ccc(Cl)cc4Cl)CC3)cccc2n1 [Example-084]
< 1000	Nc1nc(N)c2c(OCC3CCN(S(=O)(=O)c4cccc5ccccc45)CC3)cccc2n1 [Example-029]
< 1000	Nc1nc(N)c2c(OCC3CCN(Cc4ccncc4)CC3)cccc2n1 [Example-119]
< 1000	Nc1nc(N)c2c(OCC3CCN(Cc4cc(F)cc(F)c4)CC3)cccc2n1 [Example-137]
< 1000	Nc1nc(N)c2c(OCC3CCN(Cc4ccc(F)cc4)CC3)cccc2n1 [Example-149]
< 1000	CC(C)(C)OC(=O)N1CCC(COc2cccc3nc(N)nc(N)c23)CC1 [Example-037]
< 1000	Nc1nc(N)c2c(OCC3CCN(Cc4cccc(F)c4)CC3)cccc2n1 [Example-132]
< 1000	COc1ccc(Br)cc1S(=O)(=O)N1CCC(COc2cccc3nc(N)nc(N)c23)CC1 [Example-083]
< 1000	Nc1nc(N)c2c(OCC3CCN(Cc4cc(Cl)cc(Cl)c4)CC3)cccc2n1 [Example-116]

EC50 [nM]	SMILES
< 1000	Cc1ccc(F)cc1S(=O)(=O)N1CCC(COc2cccc3nc(N)nc(N)c23)CC1 [Example-079]
< 1000	Nc1nc(N)c2c(OCC3CCN(S(=O)(=O)c4ccc(Cl)c(Cl)c4)CC3)cccc2n1 [Example-088]
< 1000	COc1ccc(Cl)cc1S(=O)(=O)N1CCC(COc2cccc3nc(N)nc(N)c23)CC1 [Example-080]
< 1000	Nc1nc(N)c2c(OCC3CCN(C(=O)c4ccc(I)cc4)CC3)cccc2n1 [Example-040]
< 1000	Nc1nc(N)c2c(OCC3CCN(C(=O)CSc4ccccc4)CC3)cccc2n1 [Example-070]
< 1000	Nc1nc(N)c2c(OCC3CCN(S(=O)(=O)c4cccs4)CC3)cccc2n1 [Example-075]
< 1000	CC(C)(C)c1ccc(CN2CCC(COc3cccc4nc(N)nc(N)c34)CC2)cc1 [Example-129]
< 1000	Nc1nc(N)c2c(OCC3CCN(Cc4ccc(OC(F)(F)F)cc4)CC3)cccc2n1 [Example-102]
< 1000	CS(=O)(=O)N1CCC(COc2cccc3nc(N)nc(N)c23)CC1 [Example-072]
< 1000	Cc1ccc(C)c(CN2CCC(COc3cccc4nc(N)nc(N)c34)CC2)c1 [Example-146]
< 1000	Nc1nc(N)c2c(OCC3CCN(C(=O)c4cccc(F)c4)CC3)cccc2n1 [Example-046]
< 1000	COc1ccc(CN2CCC(COc3cccc4nc(N)nc(N)c34)CC2)cc1F [Example-122]
< 1000	Nc1nc(N)c2c(OCC3CCN(S(=O)(=O)c4cccc(F)c4)CC3)cccc2n1 [Example-077]
< 1000	Nc1nc(N)c2c(OCC3CCN(S(=O)(=O)c4ccc(Cl)cc4)CC3)cccc2n1 [Example-028]
< 1000	Nc1nc(N)c2c(OCC3CCN(CC4COc5ccccc5O4)CC3)cccc2n1 (centres unmarked) [Example-096]
< 1000	Nc1nc(N)c2c(OCC3CCN(C(=O)c4ccc(Cl)c(Cl)c4)CC3)cccc2n1 [Example-109]
< 1000	Nc1nc(N)c2c(OCC3CCN(Cc4ccccn4)CC3)cccc2n1 [Example-118]
< 1000	Nc1nc(N)c2c(OCC3CCN(Cc4cccc(OC(F)(F)F)c4)CC3)cccc2n1 [Example-103]
< 1000	CC(=O)Nc1ccc(S(=O)(=O)N2CCC(COc3cccc4nc(N)nc(N)c34)CC2)cc1 [Example-090]
< 1000	Nc1nc(N)c2c(OCC3CCN(C(=O)c4cccs4)CC3)cccc2n1 [Example-055]
< 1000	Nc1nc(N)c2c(OCC3CCN(C(=O)c4ccc(Cl)nc4)CC3)cccc2n1 [Example-051]
< 1000	Nc1nc(N)c2c(OCC3CCN(C(=O)c4ccco4)CC3)cccc2n1 [Example-057]
< 1000	Nc1nc(N)c2c(OCC3CCN(C(=O)c4ccccc4OC(F)(F)F)CC3)cccc2n1 [Example-061]

SMILES	EC50 [nM]
Cc1ccccc1S(=O)(=O)N1CCC(COc2cccc3nc(N)nc(N)c23)CC1 [Example-031]	< 1000

Same assay, conditions: Table 3, SMN2 promoter driving β-lactamase, read-out: Promoter Assay EC50

EC50 [nM]	SMILES
< 1000	COC(=O)c1cccc(CN2CCC(COc3cccc4nc(N)nc(N)c34)CC2)c1 [Example-156]
< 1000	COC(=O)c1ccc(CN2CCC(COc3cccc4nc(N)nc(N)c34)CC2)cc1 [Example-157]
